This is an account of results in patent US11584763B2, “Chromenopyridine derivatives as phosphatidylinositol phosphate kinase inhibitors” (HIBERCELL, INC., priority 2017, dated 2023).

The IC50 is the concentration needed to halve the response being measured.

The structures appear in SMILES notation.

Test [1] addresses T1, PIP4K2B (Homo sapiens, UniProt P78356).
T1 construct: made in house; host or cells: E. coli
T1 sequence (P78356 1-416): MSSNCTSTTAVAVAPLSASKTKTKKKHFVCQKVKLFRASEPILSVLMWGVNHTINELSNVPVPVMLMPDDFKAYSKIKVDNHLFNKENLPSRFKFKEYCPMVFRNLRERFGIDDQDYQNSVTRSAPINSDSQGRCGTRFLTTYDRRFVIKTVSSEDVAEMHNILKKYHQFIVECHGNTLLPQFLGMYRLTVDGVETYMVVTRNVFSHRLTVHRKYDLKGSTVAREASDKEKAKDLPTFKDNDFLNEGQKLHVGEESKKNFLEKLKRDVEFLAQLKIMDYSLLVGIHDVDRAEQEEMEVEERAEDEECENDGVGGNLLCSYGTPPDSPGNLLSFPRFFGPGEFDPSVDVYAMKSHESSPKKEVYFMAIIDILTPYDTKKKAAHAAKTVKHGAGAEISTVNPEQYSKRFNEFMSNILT
Kind of test: Trans-FI P kinase assay PIP4K2B (PIP4KtypeIIB inhibition assay). Format: biochemical. The settings on record: compounds listed under IC50 bin headings; 100 uM GTP; read-out: Trans-FI P kinase assays: PIP4K2B IC50. In outline:
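GST-tagged human PIP4K2B (5 nM, E. coli-expressed) preincubated 1 h at 27 C with compound (top 4.8 uM, 5% DMSO), then reacted 2 h with 100 uM GTP and 80 uM PI5P/DOPE vesicles in HEPES pH 7.3, MgCl2, Triton X-100. GDP detected by Transcreener FI fluorescence via calibration curve; IC50 from % activity vs log[inhibitor].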

Test [2] concerns the target T2, PIP4K 2A (Homo sapiens, UniProt P48426).
T2 sequence (P48426 1-406): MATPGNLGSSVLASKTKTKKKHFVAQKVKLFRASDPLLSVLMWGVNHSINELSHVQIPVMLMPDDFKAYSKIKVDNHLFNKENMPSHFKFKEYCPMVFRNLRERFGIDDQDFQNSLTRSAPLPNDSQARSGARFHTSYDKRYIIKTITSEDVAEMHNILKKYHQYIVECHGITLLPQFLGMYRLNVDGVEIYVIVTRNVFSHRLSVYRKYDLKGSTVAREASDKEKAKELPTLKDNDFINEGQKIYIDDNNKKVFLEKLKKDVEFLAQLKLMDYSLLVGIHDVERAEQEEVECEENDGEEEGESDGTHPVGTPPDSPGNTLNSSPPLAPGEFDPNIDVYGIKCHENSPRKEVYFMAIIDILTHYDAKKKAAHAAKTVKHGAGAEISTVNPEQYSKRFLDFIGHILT
Briefly: ADP-glo kinase assay PIP4K 2A. Also on record: 4 nM PIP4K2A (full length protein, SignalChem); purchased SignalChem. The following applies: compounds listed under IC50 bin headings. The class given is biochemical. In outline: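 Full-length PIP4K2A was pre-incubated 15 min at RT with compound in 20 mM MOPS pH 7.2, 25 mM MgCl2, 0.005% Tween 20. The enzyme mix held 4 nM kinase and 100 μM PI(5)P diC8, and ATP was added from a 60 μM solution. After 1 h at RT, ADP-Glo luminescence gave % inhibition versus DMSO, fitted to IC50 over 10 threefold dilutions.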
(In general: ADP-Glo turns the ADP formed in a reaction into a luminescent signal.)

For the compound `O=C1NCCN1c1cncc(Nc2cc3c(cn2)-c2cc(F)c(N4CCCC4=O)cc2OC3)c1` [Example 161, 1-(5-((9-fluoro-8-(2-oxopyrrolidin-1-yl)-5H-chromeno[4,3-c]pyridin-3-yl)amino)pyridin-3-yl)imidazolidin-2-one], the IC50 fell in the range of 10 to 100 nM in test [1] and 1 to 10 nM in test [2].
As for `CC1(C)Oc2cc(N3CCCC3=O)ccc2-c2cnc(Nc3cncc(N4CCNC4=O)c3)cc21` [Example 162, 1-(5-((5,5-dimethyl-8-(2-oxopyrrolidin-1-yl)-5H-chromeno[4,3-c]pyridin-3-yl)amino)pyridin-3-yl)imidazolidin-2-one], the IC50 fell in the range of 10 to 100 nM in test [1] and 1 to 10 nM in test [2].
Turning to `O=C1CCCN1c1ccc2c(c1)OCc1cc(Nc3cnc4c(c3)OCCO4)ncc1-2` [Example 163, 1-(3-((2,3-dihydro-[1,4]dioxino[2,3-b]pyridin-7-yl)amino)-5H-chromeno[4,3-c]pyridin-8-yl)pyrrolidin-2-one], the figures for the IC50 in test [1] and in test [2] were 10 to 100 nM and 1 to 10 nM, respectively.
The like results for `O=C1CCCN1c1cc2c(cc1F)-c1cnc(Nc3cnc4c(c3)OCCO4)cc1CO2` [Example 165, 1-(3-((2,3-dihydro-[1,4]dioxino[2,3-b]pyridin-7-yl)amino)-9-fluoro-5H-chromeno[4,3-c]pyridin-8-yl)pyrrolidin-2-one] were, in that order, 10 to 100 nM and 10 to 100 nM.
Turning to `CC1Oc2cc(N3CCCC3=O)c(F)cc2-c2cnc(Nc3cnc4c(c3)OCCO4)cc21` (stereo not shown) [Example 166, 1-(3-((2,3-dihydro-[1,4]dioxino[2,3-b]pyridin-7-yl)amino)-9-fluoro-5-methyl-5H-chromeno[4,3-c]pyridin-8-yl)pyrrolidin-2-one], the IC50 in test [1] was in the range of 10 to 100 nM; in test [2] it was 1 to 10 nM.
With `COCCC(=O)N1CCN(c2cncc(Nc3cc4c(cn3)-c3ccc(N5CCCC5=O)cc3OC4)c2)CC1` [Example 168, 1-(3-((5-(4-(3-methoxypropanoyl)piperazin-1-yl)pyridin-3-yl)amino)-5H-chromeno[4,3-c]pyridin-8-yl)pyrrolidin-2-one], the IC50 in test [1] and in test [2] was 10 to 100 nM each time.
As for `COCCC(=O)N1CCN(c2cncc(Nc3cc4c(cn3)-c3ccc(N5CCCC5=O)cc3OC4C)c2)CC1` (stereo not shown) [Example 169, 1-(3-((5-(4-(3-methoxypropanoyl)piperazin-1-yl)pyridin-3-yl)amino)-5-methyl-5H-chromeno[4,3-c]pyridin-8-yl)pyrrolidin-2-one], the IC50 in test [1] fell in the range of 10 to 100 nM; in test [2] it was 1 to 10 nM.
For the compound `COCCC(=O)N1CCN(c2cncc(Nc3cc4c(cn3)-c3cc(F)c(N5CCCC5=O)cc3OC4)c2)CC1` [Example 171, 1-(9-fluoro-3-((5-(4-(3-methoxypropanoyl)piperazin-1-yl)pyridin-3-yl)amino)-5H-chromeno[4,3-c]pyridin-8-yl)pyrrolidin-2-one], the IC50 in test [1] and in test [2] was 10 to 100 nM each time.
Turning to `COCCC(=O)N1CCN(c2cncc(Nc3cc4c(cn3)-c3cc(F)c(N5CCCC5=O)cc3OC4C)c2)CC1` (stereo not shown) [Example 172, 1-(9-fluoro-3-((5-(4-(3-methoxypropanoyl)piperazin-1-yl)pyridin-3-yl)amino)-5-methyl-5H-chromeno[4,3-c]pyridin-8-yl)pyrrolidin-2-one], the IC50 is 10 to 100 nM in test [1] and 1 to 10 nM in test [2].
Take `CC1Oc2cc(N3CCCC3=O)ccc2-c2cnc(Nc3cncc(NC(=O)c4ccc(NC(=O)/C=C/CN(C)C)cc4)c3)cc21` (stereo not shown) [Example 174, (E)-4-(4-(dimethylamino)but-2-enamido)-N-(5-((5-methyl-8-(2-oxopyrrolidin-1-yl)-5H-chromeno[4,3-c]pyridin-3-yl)amino)pyridin-3-yl)benzamide]: the IC50 lay within 10 to 100 nM in test [1] and 1 to 10 nM in test [2].
The like results for `CC1Oc2cc(N3CCCC3=O)ccc2-c2cnc(Nc3cncc(NC(=O)CCc4cccc(NC(=O)/C=C/CN(C)C)c4)c3)cc21` (stereo not shown) [Example 176, (E)-4-(dimethylamino)-N-(3-(3-((5-((5-methyl-8-(2-oxopyrrolidin-1-yl)-5H-chromeno[4,3-c]pyridin-3-yl)amino)pyridin-3-yl)amino)-3-oxopropyl)phenyl)but-2-enamide] were, in that order, 10 to 100 nM and 1 to 10 nM.
For `CC1Oc2cc(N3CCCC3=O)ccc2-c2cnc(Nc3cncc(NC(=O)CCc4cccc(NC(=O)CCCN(C)C)c4)c3)cc21` (stereo not shown) [Example 177, 4-(dimethylamino)-N-(3-(3-((5-((5-methyl-8-(2-oxopyrrolidin-1-yl)-5H-chromeno[4,3-c]pyridin-3-yl)amino)pyridin-3-yl)amino)-3-oxopropyl)phenyl)butanamide], the IC50 in test [1] and in test [2] was 1 to 10 nM throughout.
With `CC1Oc2cc(N3CCCC3=O)ccc2-c2cnc(Nc3cncc(N4CCN(Cc5cccc(NC(=O)CNC(=O)/C=C/CN(C)C)c5)C4=O)c3)cc21` (stereo not shown) [Example 178, (E)-4-(dimethylamino)-N-(2-((3-((3-(5-((5-methyl-8-(2-oxopyrrolidin-1-yl)-5H-chromeno[4,3-c]pyridin-3-yl)amino)pyridin-3-yl)-2-oxoimidazolidin-1-yl)methyl)phenyl)amino)-2-oxoethyl)but-2-enamide], the IC50 in test [1] is 1 to 10 nM; in test [2] it was no more than 1 nM.
For the compound `CC1Oc2cc(N3CCCC3=O)ccc2-c2cnc(Nc3cnc4c(c3)N3C(=O)CC[C@@H]3CO4)cc21` (stereo partly drawn) [Example 180, (6aR)-2-((5-methyl-8-(2-oxopyrrolidin-1-yl)-5H-chromeno[4,3-c]pyridin-3-yl)amino)-6,6a,7,8-tetrahydro-9H-pyrido[2,3-b]pyrrolo[1,2-d][1,4]oxazin-9-one], the IC50 was 1 to 10 nM in test [1] and no more than 1 nM in test [2].
As for `CC1Oc2cc(N3CCCC3=O)c(F)cc2-c2cnc(Nc3cnc4c(c3)N3C(=O)CC[C@@H]3CO4)cc21` (stereo partly drawn) [Example 181, (6aR)-2-((9-fluoro-5-methyl-8-(2-oxopyrrolidin-1-yl)-5H-chromeno[4,3-c]pyridin-3-yl)amino)-6,6a,7,8-tetrahydro-9H-pyrido[2,3-b]pyrrolo[1,2-d][1,4]oxazin-9-one], the IC50 in test [1] and in test [2] was 1 to 10 nM throughout.
For the compound `O=C1CCCN1c1ccc2c(c1)OCc1cc(Nc3cnc4c(c3)N3C(=O)CC[C@@H]3CO4)ncc1-2` [Example 182, (R)-2-((8-(2-oxopyrrolidin-1-yl)-5H-chromeno[4,3-c]pyridin-3-yl)amino)-6,6a,7,8-tetrahydro-9H-pyrido[2,3-b]pyrrolo[1,2-d][1,4]oxazin-9-one], the IC50 in test [1] and in test [2] was 1 to 10 nM in each case.
Take `CC1(C)Oc2cc(N3CCCC3=O)ccc2-c2cnc(Nc3cnc4c(c3)N3C(=O)CC[C@@H]3CO4)cc21` [Example 183, (R)-2-((5,5-dimethyl-8-(2-oxopyrrolidin-1-yl)-5H-chromeno[4,3-c]pyridin-3-yl)amino)-6,6a,7,8-tetrahydro-9H-pyrido[2,3-b]pyrrolo[1,2-d][1,4]oxazin-9-one]: the IC50 in test [1] and in test [2] was 1 to 10 nM each time.
Consider `CC1(C)Oc2cc(N3CCCC3=O)c(F)cc2-c2cnc(Nc3cnc4c(c3)N3C(=O)CC[C@@H]3CO4)cc21` [Example 184, (R)-2-((9-fluoro-5,5-dimethyl-8-(2-oxopyrrolidin-1-yl)-5H-chromeno[4,3-c]pyridin-3-yl)amino)-6,6a,7,8-tetrahydro-9H-pyrido[2,3-b]pyrrolo[1,2-d][1,4]oxazin-9-one], for which the values for the IC50 in test [1] and in test [2] were 1 to 10 nM and no more than 1 nM, respectively.
Take `CC1Oc2cc(N3CCCC3=O)ccc2-c2cnc(Nc3cncc(N4CCN(C)S4(=O)=O)c3)cc21` (stereo not shown) [Example 185, 1-(5-methyl-3-((5-(5-methyl-1,1-dioxido-1,2,5-thiadiazolidin-2-yl)pyridin-3-yl)amino)-5H-chromeno[4,3-c]pyridin-8-yl)pyrrolidin-2-one]: the IC50 fell in the range of 100 to 1000 nM in test [1] and 1 to 10 nM in test [2].
In the case of `CN1CCN(c2cncc(Nc3cc4c(cn3)-c3ccc(N5CCCC5=O)cc3OC4(C)C)c2)S1(=O)=O` [Example 186, 1-(5,5-dimethyl-3-((5-(5-methyl-1,1-dioxido-1,2,5-thiadiazolidin-2-yl)pyridin-3-yl)amino)-5H-chromeno[4,3-c]pyridin-8-yl)pyrrolidin-2-one], the IC50 in test [1] and in test [2] was 10 to 100 nM each time.
